{
  "source": "patent US11925195B2",
  "about": "“Synergistic nutritional compositions for treating cerebrovascular diseases” (CELAGENEX RESEARCH (INDIA) PVT. LTD., priority 2019, dated 2024)",
  "assay_type_in_all_cases": "in vivo, Wistar Rats",
  "key": {"[1]": {"experiment": "Rat feed consumption in global ischemia reperfusion study", "settings": "oral daily dosing (Standard 9.3 mg/kg, NBP 49.6 mg/kg, NR 31 mg/kg)"}, "[2]": {"experiment": "Rat body weight in global ischemia reperfusion study", "settings": "mean ± SEM, n = 6; for Body Weight, Basal: male Wistar rats; for Body Weight, Week 01: oral daily dosing (Standard 9.3 mg/kg, NBP 49.6 mg/kg, NR 31 mg/kg)"}, "TNF alpha": {"test_system": "TNF alpha", "experiment": "Rat TNF alpha level after global ischemia reperfusion", "settings": "oral 10 days (Std 9.3 mg/kg, NBP 49.6 mg/kg, NR 31 mg/kg); 30 mins global ischemia on 7th day, 72 hrs reperfusion; mean ± SEM, n = 6; I/R control 172.17 ± 6.35"}, "Interleukin - 6": {"test_system": "Interleukin - 6", "experiment": "Rat Interleukin-6 level after global ischemia reperfusion", "settings": "oral 10 days (Standard 9.3 mg/kg, NBP 49.6 mg/kg, NR 31 mg/kg); 30 mins global ischemia on 7th day, 72 hrs reperfusion; mean ± SEM, n = 6; I/R control 121.83 ± 1.65"}},
  "data": [
    {"compound": "NC(=O)c1ccc[n+]([C@@H]2O[C@H](CO)[C@@H](O)[C@H]2O)c1.[Cl-]", "note": "[Nicotinamide Riboside chloride (NR), nicotinamide riboside chloride]", "values": [
      {"measurement": "Feed Consumption, Week 01", "setting": "[1]", "value": "99.71 ± 1.04", "unit": "gm"},
      {"measurement": "Body Weight, Basal", "setting": "[2]", "value": "215.00 ± 1.46", "unit": "gm"},
      {"measurement": "Body Weight, Week 01", "setting": "[2]", "value": "224.83 ± 1.08", "unit": "gm"},
      {"measurement": "TNF alpha Level", "setting": "TNF alpha", "value": "160.33 ± 4.79", "unit": "pg/mL"},
      {"measurement": "Interleukin - 6 Levels", "setting": "Interleukin - 6", "value": "109.56 ± 0.27", "unit": "pg/mL"}
    ]},
    {"compound": "CCCCC1OC(=O)c2ccccc21", "note": "(racemic) [3-N-butylpthalide (NBP), 3-N-butylphthalide]", "values": [
      {"measurement": "Feed Consumption, Week 01", "setting": "[1]", "value": "99.57 ± 1.00", "unit": "gm"},
      {"measurement": "Body Weight, Basal", "setting": "[2]", "value": "214.50 ± 1.12", "unit": "gm"},
      {"measurement": "Body Weight, Week 01", "setting": "[2]", "value": "224.50 ± 0.76", "unit": "gm"},
      {"measurement": "TNF alpha Level", "setting": "TNF alpha", "value": "132.00 ± 2.34", "unit": "pg/mL"},
      {"measurement": "Interleukin - 6 Levels", "setting": "Interleukin - 6", "value": "85.39 ± 0.62", "unit": "pg/mL"}
    ]}
  ]
}
